Reference: patent US20090226368A1, “Androgen-Receptor (AR) Ligands for Use in the Treatment and Diagnosis of AR-Related Pathologies” (priority 2005, published 2009)

Columns and labels:
[1] = Blood stability test, incubation in blood at 37° C.; format: in vitro ADME, human
Method: Blood was taken in EDTA tubes in order to prevent coagulation. 550 μl of ^18F-labeled (R)-Compound 3 was added to 1 ml of blood, and put in a rotating incubator at 37° C. The incubation times were 0, 30, 60 and 90 minutes. After the incubation, the blood was centrifuged for 5 minutes at 3000 rpm. The plasma was centrifuged again for 5 minutes at 10600 g and the pellet was discarded. 400 μl of the resulting supernatant was added to 800 μl of 30% THF/CH3CN, vortexed for 30 seconds and centrifuged for 5 minute at 10600 g. The supernatant was filtered through 0.45 μm filter and injected to HPLC column. The column was eluted with a mixture of acetate buffer (pH 3.8) and acetonitrile (35:65) at flow rate of 3 ml/min. The HPLC eluent was monitored sequentially for UV absorbance at 254 nm and radioactivity. Each sample was done in duplicate.
The same procedure was done with the ^11C-labeled (R)-Compound 3 after incubation of 0, 15, 30 and 45 minutes.
Blood stability, which was measured by phosphor-imager, was done in the same procedure. The filtered samples were loaded on reverse phase TLC plates and exposed to the phosphor-imager plates for 1 hour.
In the case of (R)-Compound 2, the incubation in the human blood sample was 0, 15, 30 and 45 minutes. The percent of extraction of the compound was around 40%.

LNCap cell lines = assay: Antagonist test, PSA secretion measured by ELISA; format: cell-based; details: 48 and 72 hours; for PSA secretion in comparison to the control: given alone, testosterone 100 nM, compound 0.2, 0.5 and 1 μM
Method: PSA (Prostate Specific Antigen) is a secreted protein which is regulated by AR and is clinically used to detect prostate cancer in humans. LNCap cell lines were seeded in 24 wells (10^5 cells/well) in 10% FCS RPMI supplemented with sodium-pyruvate, pen/strep, L-glutamine, testosterone and insulin and grown for 24 hours. Then, the cells were washed 3 times with cold PBS and incubated in 10% FCS red-phenol-free RPMI. Testosterone (100 nM), ^18F-labeled (R)-Compound 3 (0.2, 0.5 and 1 μM) or both were added to the wells. Ethanol, which was used as the solvent of the testosterone and ^18F-labeled (R)-Compound 3, was added to the control wells in the same concentration.
At 48 and 72 hours, a sample of the medium was taken and the PSA levels were measured by ELISA.

human AR recombinant = biological target: T1, human AR recombinant (Homo sapiens, UniProt P10275); assay: Relative Binding Affinity (RBA) assay, competitive binding with [3H]R1881; details: against [3H]R1881; R1881 standard = 100 by definition
T1 construct: purchased Pan-Vera
T1 sequence (P10275 1-920): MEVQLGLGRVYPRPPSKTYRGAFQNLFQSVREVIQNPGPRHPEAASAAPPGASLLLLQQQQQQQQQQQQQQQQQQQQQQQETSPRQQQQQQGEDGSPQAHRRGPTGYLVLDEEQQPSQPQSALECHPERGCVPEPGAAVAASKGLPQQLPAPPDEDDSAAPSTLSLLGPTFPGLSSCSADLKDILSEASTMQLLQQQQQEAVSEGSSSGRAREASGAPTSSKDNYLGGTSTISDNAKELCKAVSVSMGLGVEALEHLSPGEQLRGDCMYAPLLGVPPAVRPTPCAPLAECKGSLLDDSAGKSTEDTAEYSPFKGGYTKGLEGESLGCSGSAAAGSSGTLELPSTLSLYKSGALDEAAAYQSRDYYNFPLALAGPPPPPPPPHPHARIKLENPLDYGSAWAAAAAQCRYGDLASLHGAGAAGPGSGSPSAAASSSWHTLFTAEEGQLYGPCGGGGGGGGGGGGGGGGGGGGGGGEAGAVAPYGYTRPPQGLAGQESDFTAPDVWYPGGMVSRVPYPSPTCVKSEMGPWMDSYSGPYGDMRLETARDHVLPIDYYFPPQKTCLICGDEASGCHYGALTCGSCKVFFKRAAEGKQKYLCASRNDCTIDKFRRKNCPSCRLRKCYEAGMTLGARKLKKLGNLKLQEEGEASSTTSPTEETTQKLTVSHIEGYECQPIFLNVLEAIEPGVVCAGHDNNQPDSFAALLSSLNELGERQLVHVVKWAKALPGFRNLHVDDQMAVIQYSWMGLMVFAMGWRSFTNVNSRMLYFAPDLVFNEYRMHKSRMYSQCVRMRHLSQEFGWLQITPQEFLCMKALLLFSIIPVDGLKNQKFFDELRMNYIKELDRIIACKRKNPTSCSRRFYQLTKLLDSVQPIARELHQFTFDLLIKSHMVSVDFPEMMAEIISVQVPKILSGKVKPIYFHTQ
Method: In order to measure the affinity of the compounds to the A, the compounds of the general Formula I, referred herein also as the AR ligands were tested in RBA (Relative Binding Affinity) assay, which is a competitive binding assay with ^3H—R1881, a high affinity AR binding ligand.
RBA of androgens were measured against [^3H]R1881 in human AR recombinant (Pan-Vera). RBA values of the standards are 100 by definition (Brandes S. J., et al., Molecular Pharmacology; 1987; 32:391-400).

[2] = In-vivo blood stability in nude mice; details: blood sampled after 0, 15, 30 and 35 minutes, phosphor-imagers
Method: In-vivo blood stability experiments were performed for the ^11C-labeled (R)-Compound 3. The compound was injected into nude mice. Blood was sampled from the mice after 0, 15, 30 and 35 minutes. The labeled compound was extracted and evaluated using phosphor-imagers.

[3] = Biodistribution in normal Lewis male rats, gamma-counter; format: in vivo; details: tail vein
Method: The distribution of ^11C-labeled (R)-Compound 3 was measured in normal Lewis male rats which have been kept under SPF conditions. The labeled compound was injected through the tail vein of the rat. The rats were sacrificed 30, 60 and 90 minutes post injection, and prostate, blood, liver, muscle and kidney were removed and the activity in each organ was measured by gamma-counter (Tables 2A-D).

[4] = PET-CT scan of distribution, bladder activity; format: in vivo; details: normal Lewis male rats, 40 minutes post injection
Method: In some clinically used radio-tracers, such of FDG, activity is observed in the bladder, and mask the prostate. […] The distribution of the compound was scanned by human PET-CT. Counter dye was injected to the animal 10 minutes prior to the injection of the labeled compound and the exact location of the bladder was detected by CT. In accordance with the biodistribution experiment, activity was measured in the metabolic organs.

[5] = blood, 37° C., incubation 0, 30, 60 and 90 minutes, HPLC
[6] = 30 minutes post injection, Table 2A
[7] = 60 minutes post injection, Table 2B
[8] = 60 minutes post injection, Table 2B (Rats 1, 2)
[9] = 60 minutes post injection, Table 2C
[10] = 60 minutes post injection, Table 2C (Rats 3, 4)
[11] = 90 minutes post injection, Table 2D

SMILES: CN(C)C[C@@](C)(O)C(=O)Nc1ccc([18F])c(C(F)(F)F)c1 [^18F-labeled (R)-Compound 3]
- metabolites in blood [1, 5]: no metabolites were evident
- percent of extraction [1, 5]: 39-43%
- PSA secretion in comparison to the control (LNCap cell lines): reduced the PSA secretion
- testosterone-induced secretion of PSA (LNCap cell lines; together with testosterone 100 nM, 0.2, 0.5 and 1 μM, P<0.01): significantly reduced the testosterone-induced secretion of PSA

SMILES: CC(C)(O)C(=O)Nc1ccc([N+](=O)[O-])c(C(F)(F)F)c1 [Hydroxyflutamide]
- RBA (%) (human AR recombinant): 0.027%

SMILES: CN(C)C[C@@](C)(O)C(=O)Nc1ccc([N+](=O)[O-])c(C(F)(F)F)c1 [(R)-Compound 2, (R)-3-Dimethyl-2-hydroxy-2-methyl-N-(4-nitro-3-trifluoromethyl-phenyl)-propionamide]
- RBA (%) (human AR recombinant): 0.036%
- percent of extraction ([1]; human blood sample, incubation 0, 15, 30 and 45 minutes): around 40%
- formation of metabolites ([1]; human blood sample, incubation 0, 15, 30 and 45 minutes, phosphor-imager): no metabolites were evident

SMILES: CN([11CH3])C[C@@](C)(O)C(=O)Nc1ccc(F)c(C(F)(F)F)c1 [^11C-labeled (R)-Compound 3]
- metabolites in blood in vivo [2]: No metabolites were evident
- Biodistribution Blood, Av. [3, 6]: 0.76 % id/g
- Biodistribution Blood, Rat 1 [3, 6]: 0.89 % id/g
- Biodistribution Blood, Rat 2 [3, 6]: 0.63 % id/g
- Biodistribution Kidney, Av. [3, 6]: 12.43 % id/g
- Biodistribution Kidney, Rat 1 [3, 6]: 15.57 % id/g
- Biodistribution Kidney, Rat 2 [3, 6]: 9.29 % id/g
- Biodistribution Liver, Av. [3, 6]: 3.96 % id/g
- Biodistribution Liver, Rat 1 [3, 6]: 4.26 % id/g
- Biodistribution Liver, Rat 2 [3, 6]: 3.67 % id/g
- Biodistribution Muscle, Av. [3, 6]: 1.14 % id/g
- Biodistribution Muscle, Rat 1 [3, 6]: 1.07 % id/g
- Biodistribution Muscle, Rat 2 [3, 6]: 1.21 % id/g
- Biodistribution Prostate, Av. [3, 6]: 1.47 % id/g
- Biodistribution Prostate, Rat 1 [3, 6]: 1.67 % id/g
- Biodistribution Prostate, Rat 2 [3, 6]: 1.27 % id/g
- Biodistribution Blood, Rat 1 [3, 7]: 0.54 % id/g
- Biodistribution Blood, Rat 2 [3, 7]: 0.41 % id/g
- Biodistribution Kidney, Rat 1 [3, 7]: 5.03 % id/g
- Biodistribution Kidney, Rat 2 [3, 7]: 3.54 % id/g
- Biodistribution Liver, Rat 1 [3, 7]: 8.79 % id/g
- Biodistribution Liver, Rat 2 [3, 7]: 4.61 % id/g
- Biodistribution Muscle, Rat 1 [3, 7]: 1.02 % id/g
- Biodistribution Muscle, Rat 2 [3, 7]: 0.68 % id/g
- Biodistribution Prostate, Rat 1 [3, 7]: 2.32 % id/g
- Biodistribution Prostate, Rat 2 [3, 7]: 1.05 % id/g
- Biodistribution Blood, Av. [3, 8]: 0.48 % id/g
- Biodistribution Kidney, Av. [3, 8]: 4.29 % id/g
- Biodistribution Liver, Av. [3, 8]: 6.70 % id/g
- Biodistribution Muscle, Av. [3, 8]: 0.85 % id/g
- Biodistribution Prostate, Av. [3, 8]: 1.69 % id/g
- Biodistribution Blood, Rat 3 [3, 9]: 0.28 % id/g
- Biodistribution Blood, Rat 4 [3, 9]: 0.35 % id/g
- Biodistribution Kidney, Rat 3 [3, 9]: 2.48 % id/g
- Biodistribution Kidney, Rat 4 [3, 9]: 2.54 % id/g
- Biodistribution Liver, Rat 3 [3, 9]: 5.30 % id/g
- Biodistribution Liver, Rat 4 [3, 9]: 5.14 % id/g
- Biodistribution Muscle, Rat 3 [3, 9]: 0.55 % id/g
- Biodistribution Muscle, Rat 4 [3, 9]: 0.56 % id/g
- Biodistribution Prostate, Rat 3 [3, 9]: 1.13 % id/g
- Biodistribution Prostate, Rat 4 [3, 9]: 1.18 % id/g
- Biodistribution Blood, Av. [3, 10]: 0.32 % id/g
- Biodistribution Kidney, Av. [3, 10]: 2.51 % id/g
- Biodistribution Liver, Av. [3, 10]: 5.22 % id/g
- Biodistribution Muscle, Av. [3, 10]: 0.55 % id/g
- Biodistribution Prostate, Av. [3, 10]: 1.16 % id/g
- Biodistribution Blood, Av. [3, 11]: 0.36 % id/g
- Biodistribution Blood, Rat 1 [3, 11]: 0.3 % id/g
- Biodistribution Blood, Rat 2 [3, 11]: 0.42 % id/g
- Biodistribution Kidney, Av. [3, 11]: 2.46 % id/g
- Biodistribution Kidney, Rat 1 [3, 11]: 2.24 % id/g
- Biodistribution Kidney, Rat 2 [3, 11]: 2.68 % id/g
- Biodistribution Liver, Av. [3, 11]: 5.35 % id/g
- Biodistribution Liver, Rat 1 [3, 11]: 5.16 % id/g
- Biodistribution Liver, Rat 2 [3, 11]: 5.55 % id/g
- Biodistribution Muscle, Av. [3, 11]: 0.53 % id/g
- Biodistribution Muscle, Rat 1 [3, 11]: 0.48 % id/g
- Biodistribution Muscle, Rat 2 [3, 11]: 0.57 % id/g
- Biodistribution Prostate, Av. [3, 11]: 1.17 % id/g
- Biodistribution Prostate, Rat 1 [3, 11]: 1.22 % id/g
- Biodistribution Prostate, Rat 2 [3, 11]: 1.12 % id/g
- activity in the bladder [4]: No activity was observed in the bladder

SMILES: CN(C)C[C@@](C)(O)C(=O)Nc1ccc(F)c(C(F)(F)F)c1 [(R)-Compound 3, (R)-3-Dimethyl-N-(4-fluoro-3-(trifluoromethyl)phenyl)-2-hydroxy-2-methyl-propanamide]
- RBA (%) (human AR recombinant): 0.029%

SMILES: CN(C)C[C@@](C)(O)C(=O)Nc1ccc(C#N)c(C(F)(F)F)c1 [(R)-Compound 1, (R)-3-Dimethyl-N-(4-cyano-3-trifluoromethyl-phenyl)-2-hydroxy-2-methyl-propionamide]
- RBA (%) (human AR recombinant): 0.030%

SMILES: C[C@]12CC[C@H]3[C@@H](CCC4=CC(=O)CC[C@@]43C)[C@@H]1CC[C@@H]2O [Testosterone, reference compound]
- PSA secretion in comparison to the control (LNCap cell lines): increased PSA secretion

SMILES: C[C@](O)(CBr)C(=O)Nc1ccc(F)c(C(F)(F)F)c1 [(R)-F-1, (R)-3-Bromo-N-(4-fluoro-3-(trifluoromethyl)phenyl)-2-hydroxy-2-methyl-propanamide]
- RBA (%) (human AR recombinant): 0.057%

SMILES: CC(C)(O)C(=O)Nc1ccc(F)c(C(F)(F)F)c1 [(R)-F-2, N-(4-fluoro-3-(trifluoromethyl)phenyl)-2-hydroxy-2-methylpropanamide]
- RBA (%) (human AR recombinant): 0.027%

SMILES: C[C@]1(O)CC[C@H]2[C@@H]3CCC4=CC(=O)CCC4=C3C=C[C@@]21C [Compound R1881]
- RBA (%) (human AR recombinant): 100%
